Results taken from patent publication US11395489B2, “Microbiocidal picolinamide derivatives” (Syngenta Participations AG, priority 2017, dated 2022).

Columns and labels:
[1] = system: Botryotinia fuckeliana (Botrytis cinerea); assay: Botryotinia fuckeliana (Botrytis cinerea) / liquid culture (Gray Mould); type: cell-based; settings: 72 h, 200 ppm in the formulation, inhibition of growth determined photometrically 3-4 days after application, read-out: disease control
Method: (§1) Botryotinia fuckeliana (Botrytis cinerea)/Liquid Culture (Gray Mould) Conidia of the fungus from cryogenic storage are directly mixed into nutrient broth (Vogels broth). After placing a (DMSO) solution of test compound into a microtiter plate (96-well format), the nutrient broth containing the fungal spores is added. The test plates are incubated at 24° C. and the inhibition of growth is determined photometrically 3-4 days after application.

[2] = system: Glomerella lacenarium (Colletotrichum lacenarium); assay: Glomerella lacenarium (Colletotrichum lacenarium) / liquid culture (Anthracnose); type: cell-based; settings: 200 ppm in the formulation, inhibition of growth measured photometrically 3-4 days after application, read-out: disease control
Method: as §1, with “Glomerella lacenarium (Colletotrichum lacenarium)/Liquid” for “Botryotinia fuckeliana (Botrytis cinerea)/Liquid”, “(Anthracnose)” for “(Gray Mould)”, “(PDB potato dextrose” for “(Vogels”, “measured” for “determined”

[3] = system: Magnaporthe risea (Pyricularia Oryzae); assay: whole plant or invertebrate; type: in vivo; settings: foliar, read-out: disease control
[4] = system: Monocraphella nivalis (Microdochium nivale); assay: Monocraphella nivalis (Microdochium nivale) / liquid culture (Foot Rot Cereals); type: cell-based; settings: 96 h, 200 ppm in the formulation, inhibition of growth determined photometrically 4-5 days after application, read-out: disease control
Method: as §1, with “Monocraphella nivalis (Microdochium nivale)/Liquid” for “Botryotinia fuckeliana (Botrytis cinerea)/Liquid”, “(Foot Rot Cereals)” for “(Gray Mould)”, “(PDB potato dextrose” for “(Vogels”, “4-5” for “3-4”

[5] = system: Mycosphaerella arachidis (Cercospora arachidicola); assay: Mycosphaerella arachidis (Cercospora arachidicola) / liquid culture (Early Leaf Spot); type: cell-based; settings: 96 h, 200 ppm in the formulation, inhibition of growth determined photometrically 4-5 days after application, read-out: disease control
Method: as §1, with “Mycosphaerella arachidis (Cercospora arachidicola)/Liquid” for “Botryotinia fuckeliana (Botrytis cinerea)/Liquid”, “(Early Leaf Spot)” for “(Gray Mould)”, “(PDB potato dextrose” for “(Vogels”, “4-5” for “3-4”

[6] = system: Mycosphaerella Raminicola (Septoria tritici); assay: Mycosphaerella Raminicola (Septoria tritici) / liquid culture (Septoria Blotch); type: cell-based; settings: 200 ppm in the formulation, inhibition of growth determined photometrically 4 to 5 days after application, read-out: disease control
Method: as §1, with “Mycosphaerella Raminicola (Septoria tritici)/Liquid” for “Botryotinia fuckeliana (Botrytis cinerea)/Liquid”, “(Septoria Blotch)” for “(Gray Mould)”, “(PDB potato dextrose” for “(Vogels”, “4 to 5” for “3-4”

[7] = system: Phaeosphaeria Nodorum (Septoria nodorum); assay: Phaeosphaeria nodorum (Septoria nodorum) / wheat / leaf disc preventative (Glume Blotch); type: in vivo; settings: Parastagonospora nodorum, foliar, 200 ppm in the formulation, compared to untreated, 5-7 days after application, read-out: disease control
Method: Phaeosphaeria Nodorum (Septoria nodorum)/Wheat/Leaf Disc Preventative (Glume Blotch) Wheat leaf segments cv. Kanzler are placed on agar in a multiwell plate (24-well format) and sprayed with the formulated test compound diluted in water. The leaf disks are inoculated with a spore suspension of the fungus 2 days after application. The inoculated test leaf disks are incubated at 20° C. and 75% rh under a light regime of 12 h light/12 h darkness in a climate cabinet and the activity of a compound is assessed as percent disease control compared to untreated when an appropriate level of disease damage appears in untreated check leaf disks (5-7 days after application).

[8] = system: Puccinia recondita f. Sp. Tritici; assay: Puccinia recondita f. sp. tritici / wheat / leaf disc preventative (Brown Rust); type: in vivo; settings: foliar, 168 h, 200 ppm in the formulation, compared to untreated, 7-9 days after application, read-out: disease control

COc1ccnc(C(=O)N[C@@H](C)C(=O)OC(C)C2(c3ccccc3)CC2c2ccccc2)c1O (stereo partly drawn) [I.a.010, 1-(1,2-diphenylcyclo-propyl)ethyl (2S)-2-[(3-hydroxy-4-methoxy-pyridine-2-carbonyl)-amino]propanoate]
≥ 80%: inhibition of growth at 200 ppm [1] | inhibition of growth at 200 ppm [2] | pest or weed control at 200 ppm [3] | inhibition of growth at 200 ppm [4] | inhibition of growth at 200 ppm [5] | inhibition of growth at 200 ppm [6] | pest or weed control at 200 ppm [7] | pest or weed control at 200 ppm [8]

COc1ccnc(C(=O)N[C@@H](C)C(=O)OC(C)C2(c3ccccc3)CCCCC2)c1O (stereo partly drawn) [I.a.015, 1-(1-phenylcyclohexyl)-ethyl (2S)-2-[(3-hydroxy-4-methoxy-pyridine-2-carbonyl)amino]propanoate]
≥ 80%: inhibition of growth at 200 ppm [1] | inhibition of growth at 200 ppm [2] | inhibition of growth at 200 ppm [4] | inhibition of growth at 200 ppm [5] | inhibition of growth at 200 ppm [6] | pest or weed control at 200 ppm [7] | pest or weed control at 200 ppm [8]

COc1ccnc(C(=O)N[C@@H](C)C(=O)OC(C)C(C)(C)c2cc(F)ccc2F)c1O (stereo partly drawn) [I.ah.001, [2-(2,5-difluoro-phenyl)-1,2-dimethyl-propyl] (2S)-2-[(3-hydroxy-4-methoxy-pyridine-2-carbonyl)-amino]propanoate]
≥ 80%: inhibition of growth at 200 ppm [2] | pest or weed control at 200 ppm [3] | inhibition of growth at 200 ppm [4] | inhibition of growth at 200 ppm [5] | inhibition of growth at 200 ppm [6] | pest or weed control at 200 ppm [7] | pest or weed control at 200 ppm [8]

COc1ccnc(C(=O)N[C@@H](C)C(=O)OC(C)C2(c3ccc(Cl)cc3)CCC2)c1O (stereo partly drawn) [I.k.012, 1-[1-(4-chlorophenyl)-cyclobutyl]ethyl (2S)-2-((3-hydroxy-4-methoxy-pyridine-2-carbonyl)-amino]propanoate]
≥ 80%: inhibition of growth at 200 ppm [1] | inhibition of growth at 200 ppm [2] | pest or weed control at 200 ppm [3] | inhibition of growth at 200 ppm [4] | inhibition of growth at 200 ppm [5] | inhibition of growth at 200 ppm [6] | pest or weed control at 200 ppm [7] | pest or weed control at 200 ppm [8]

COc1ccnc(C(=O)N[C@@H](C)C(=O)OC(C)C2(c3ccc(Cl)cc3)CCCCC2)c1O (stereo partly drawn) [I.k.015, 1-[1-(4-chlorophenyl)-cyclohexyl]ethyl (2S)-2-[(3-hydroxy-4-methoxy-pyridine-2-carbonyl)amino]propanoate]
≥ 80%: inhibition of growth at 200 ppm [1] | inhibition of growth at 200 ppm [2] | inhibition of growth at 200 ppm [4] | inhibition of growth at 200 ppm [5] | inhibition of growth at 200 ppm [6] | pest or weed control at 200 ppm [7] | pest or weed control at 200 ppm [8]

COc1ccnc(C(=O)N[C@@H](C)C(=O)OC(C)C2(c3ccc(Cl)cc3)CCCCC2)c1OC(C)=O (stereo partly drawn) [I.k.075, 1-[1-(4-chlorophenyl)-cyclohexyl]ethyl (2S)-2-[(3-acetoxy-4-methoxy-pyridine-2-carbonyl)-amino]propanoate]
≥ 80%: inhibition of growth at 200 ppm [2] | pest or weed control at 200 ppm [3] | inhibition of growth at 200 ppm [5] | inhibition of growth at 200 ppm [6] | pest or weed control at 200 ppm [7] | pest or weed control at 200 ppm [8]

COc1ccnc(C(=O)N[C@@H](C)C(=O)OC(C)C(C)(C)c2ccc(Br)cc2)c1O (stereo partly drawn) [I.m.001, [2-(4-bromophenyl)-1,2-dimethyl-propyl] (2S)-2-[(3-hydroxy-4-methoxy-pyridine-2-carbonyl)amino]propanoate]
≥ 80%: inhibition of growth at 200 ppm [1] | inhibition of growth at 200 ppm [2] | inhibition of growth at 200 ppm [4] | inhibition of growth at 200 ppm [5] | inhibition of growth at 200 ppm [6] | pest or weed control at 200 ppm [7] | pest or weed control at 200 ppm [8]

COc1ccnc(C(=O)N[C@@H](C)C(=O)OC(C)C2(c3cccc4ccccc34)CC2)c1OC(C)=O (stereo partly drawn) [I.v.066, 1-[1-(1-naphthyl)cyclo-propyl]ethyl (2S)-2-[(3-acetoxy-4-methoxy-pyridine-2-carbonyl)-amino]propanoate]
≥ 80%: inhibition of growth at 200 ppm [1] | inhibition of growth at 200 ppm [2] | pest or weed control at 200 ppm [3] | inhibition of growth at 200 ppm [4] | inhibition of growth at 200 ppm [5] | inhibition of growth at 200 ppm [6] | pest or weed control at 200 ppm [7] | pest or weed control at 200 ppm [8]
